Square brackets hold non-standard residues; d marks the D form. Peptide text beside a SMILES is read from it. * marks the point of attachment. Nle = CCCC[C@H](N)C(=O)O; Cbz = O=C(OCc1ccccc1)*

Holding throughout (assay type): cell-based, human
Assay [1] has as its system fibrocystin cleavage in HEK-293 cells. Put plainly: Immunoblot (anti-V5) of fibrocystin proteolysis in HEK-293 cells transfected with pFC-V5. The protocol: (§1) FIG. 4 A is an image of a gel illustrating mIMCD3/FC cells were grown for 4 days and incubated with 0.1 μM thapsigargin (lane 2), 5 mM caffeine (lane 3), 75 μM dantrolene (lane 5), 200 μM ruthenium red (lane 7), or no additions (lanes 1, 4 and 6). After 2 hours, media were replaced with media lacking serum but containing the same supplements, and, in addition, 10 nM mifeprisone. Cell lysates were prepared after 24 hours and analyzed by immunoblotting using anti-V5 antibody. FIG. 4B is a graph of mIMCD-3 cells were transfected with 0.2 μg pG5-luc and either 0.2 μg pFC-GV or 0.2 μg pLDLR-GV. After 24 hours, cells were incubated in serum-free media in the presence or absence of 75 μM dantrolene. Relative luciferase activity was determined after 48 h. Data presented are mean ±SE of three separate transfections. The fibrocystin/Gal4-VP16 fusion protein is shown schematically below. Shaded box indicates the transmembrane segment; filled boxes indicate the N-terminal signal sequence and the C-terminal Gal4-VP16 fusion protein. FIG. 4C is an image of a gel illustrating HEK-293 cells transfected with 6 μg pFC-V5, and 8 hours later incubated in serum-free media containing 1-8 mM caffeine, 0.5 μM calphostin, or no additions. Cells were lysed after 16 h, and extracts were analyzed by immunoblotting using anti-V5 antibody. FIG. 4D is a graph of HEK-293 cells transfected with 0.2 μg pFC-GV and 0.2 μg pG5-luc. After 24 hours, cells were incubated in serum-free media containing 5 mM caffeine or no additions. Luciferase activity was measured after 12 hours. Data presented are mean ±SE of three separate transfections. FIG. 4E is an image of a gel illustrating HEK-293 cells stably expressing the m3 muscarinic receptor (lanes 1-4) and untransfected HEK-293 cells (lanes 5-8) were transfected with 6 μg pFC-V5. […] Cells were lysed after 16 hours, and extracts were analyzed by immunoblotting using anti-V5 antibody.
FIG. 5A is an image of a gel that illustrates HEK-293 cells were transfected with 6 μg pFC-V5. […] Fourteen hours later, cellular proteins were extracted and analyzed by immunoblotting using anti-V5 antibody. FIG. 5B is an image of a gel mIMCD3/FC cells were grown for 4 days, and expression of fibrocystin was induced by addition of 10 nM mifepristone. After 24 hours, media were supplemented with 0.1, 0.5, or 1 μM calphostin C. Thirty hours later, cells were harvested, and proteins were analyzed by immunoblotting using anti-V5 antibody. FIG. 5C is an image of a gel illustrating HEK-293 cells were transfected with 3 μg pFC-V5 and either 3 μg of the empty vector pEF-neo (lanes 1 and 3) or 3 μg pEF-PKCαA/E (lanes 2 and 4). After 12 hours media were changed to media containing 10% FCS (lanes 1 and 2) or 0.2% BSA (lanes 3 and 4). Forty-eight hours later, cells were harvested, and proteins were subjected to immunoblotting using anti-V5 antibody. FIG. 5D is a plot illustrating HEK-293 cells transfected with 0.2 μg pG5-luc and 0.2 μg pFC-GV, pLDLR-GV and/or pEF-PKCαA/E. After 16 hours, media were changed to serum-free media containing 100 nM PMA or 500 μM Br-cAMP. Twenty-four hours later, cells were harvested, and relative luciferase activities were determined. Data are the mean ±SE of three independent transfections.
(A western blot detects proteins with antibodies after separation by electrophoresis.)

The subject of assay [2] is fibrocystin cleavage in mIMCD3/FC cells. The assay is described as follows: Immunoblot (anti-V5) of fibrocystin proteolytic fragments in mIMCD3/FC cells. Particulars: 30 hours; for cleavage of fibrocystin or stability of proteolytic fragments: FIG. 9.
Assay [3] deals with fibrocystin cleavage in HEK-293 cells. The assay is described as follows: Luciferase reporter assay of fibrocystin cleavage (pFC-GV / pG5-luc) in HEK-293 cells. Particulars: for cleavage of fibrocystin or stability of proteolytic fragments (luciferase activity): HEK-293, 12 hours. How it is done:
Reporter Gene Assays—mIMCD-3 cells, HEK-293 cells, or HeLa cells were plated in 6-well dishes (3×10^5 cells/well) and cotransfected with 0.05 μg phRL-TK(Int−) encoding Renilla luciferase (Promega, Madison, Wis.), 0.1 μg Photinus luciferase reporter plasmids, and 0.01-0.3 μg effector plasmids. Luciferase assays were performed as described previously (Hiesberger, 2004). Relative luciferase activity was calculated as the ratio of Photinus and Renilla luciferase.
as §1
To quantitatively measure fibrocystin cleavage, a luciferase assay was developed that was similar to the ones employed to quantify the proteolytic cleavage of amyloid precursor protein (APP) and low density lipoprotein receptor related protein-1 (LRP1) (Cao, 2001; May, 2003). A plasmid (FC-GV) encoding the synthetic transcription factor Gal4-VP16 fused to the C-terminus of fibrocystin was generated. Proteolytic cleavage of the fibrocystin fusion protein releases Gal4-VP16, which translocates to the nucleus and activates a Gal4-responsive luciferase reporter gene (pG5-luc). Therefore, luciferase expression correlates with fibrocystin cleavage.
To quantify fibrocystin proteolysis in response to intracellular Ca^2+ release, the luciferase reporter assay was employed. HEK-293 cells were cotransfected with the plasmids pFC-GV and pG5-luc and incubated with either 5 mM caffeine or vehicle (as a control).
FIG. 5A is an image of a gel that illustrates HEK-293 cells were transfected with 6 μg pFC-V5.

[4] abbreviates: 0.1, 0.5, or 1 μM calphostin C 24 hours after induction, FIG. 5B.

calphostin C: in assay [1] (0.5 μM calphostin with caffeine, HEK-293, FIG. 4C), the caffeine-induced fibrocystin proteolysis entry is recorded as “prevented”. Further, the “PMA-induced increase of proteolytic cleavage” value in assay [1] (pretreatment with 0.5 μM calphostin C, 100 nM PMA, HEK-293, FIG. 5A) was “prevented”. Besides, in assay [2] (setting [4]), the “expression levels of fibrocystin” value is “did not alter” and the fibrocystin proteolysis result is reported as “dose-dependent inhibition”.

`C[N+](C)(C)CCOC(N)=O` [carbachol]: the fibrocystin cleavage result in assay [1] (100 μM carbachol, HEK-293 cells without m3 receptor, 16 hours, FIG. 4E) is “only in HEK-293(m3) cells”.

As for `COC(=O)Nc1nc2ccc(C(=O)c3cccs3)cc2[nH]1` [Nocodazole], the “cleavage of fibrocystin or stability of proteolytic fragments (luciferase activity)” value (shortened to “cleavage … (luciferase activity)”) in assay [3] (10 μg/ml Nocodazole, FIG. 11) was “modulated”.

In the case of `CC(C)C[C@@H](C=O)NC(=O)[C@H](CC(C)C)NC(=O)[C@H](CC(C)C)NC(=O)OCc1ccccc1` [MG-132, Carbobenzoxy-L-leucyl-L-leucyl-L-leucinal] (Cbz-Leu-Leu-Leu-aldehyde), the fibrocystin cleavage products entry in assay [2] (2 μM MG-132 in combination with 20 μM ATP, FIG. 7) was “increased presence of cleavage products”; in assay [2] (2 μM MG-132 versus vehicle, FIG. 6), “increase of fibrocystin cleavage products”.

With `CC(=O)O[C@H]1C(=O)[C@@]2(C)[C@H]([C@H](OC(=O)c3ccccc3)[C@]3(O)C[C@H](OC(=O)[C@H](O)[C@@H](NC(=O)c4ccccc4)c4ccccc4)C(C)=C1C3(C)C)[C@]1(OC(C)=O)CO[C@@H]1C[C@@H]2O` [Taxol], in assay [3] (Taxol in serum-free media, FIG. 10), the “cleavage … (luciferase activity)” value is “modulated”.

Turning to `CCCCCCCCCCCCCC(=O)O[C@@H]1[C@@H](C)[C@@]2(O)[C@@H](C=C(CO)C[C@]3(O)C(=O)C(C)=C[C@@H]23)[C@@H]2C(C)(C)[C@]12OC(C)=O` [PMA, phorbol 12-myristate 13-acetate], the “proteolytic cleavage of fibrocystin” value in assay [1] (100 nM PMA, HEK-293, 14 hours, FIG. 5A) is recorded as “marked increase”. Further, the “total expression of fibrocystin (CMV promoter)” value in assay [1] (100 nM PMA, HEK-293, FIG. 5A) is given as “increased”. For the same molecule, the “increase of luciferase activity” value in assay [3] (100 nM PMA, serum-free media, HEK-293, 24 hours, FIG. 5D) is 27 fold.

As to `CC(C)C[C@@H](C=O)NC(=O)[C@H](CC(C)C)NC(=O)[C@@H](NC(=O)OCc1ccccc1)C(C)C` [Z-VLL-CHO, Z-Val-Leu-Leu-CHO] (Cbz-Val-Leu-Leu-aldehyde), in assay [2] (15 μM Z-VLL-CHO), the “cleavage of fibrocystin or stability of proteolytic fragments” value was “altered”.

For the molecule `C/C1=C/C(=O)O[C@@H]2C[C@@H](CC[C@H](C)/C=C\CC1)O[C@@](O)([C@@H]1CSC(=O)N1)C2` [Latrunculin B], in assay [3] (2 μg/ml Latrunculin, FIG. 11), the “cleavage … (luciferase activity)” value is listed as “modulated”.

On to `CCCC[C@@H](C=O)NC(=O)[C@H](CC(C)C)NC(=O)[C@H](CC(C)C)NC(C)=O` [ALLN, Ac-Leu-Leu-Nle-CHO] (Ac-Leu-Leu-[Nle]-aldehyde), for which the “abundance of fibrocystin proteolytic fragments” value in assay [1] (10 μM ALLN versus vehicle, 14 hours, HEK-293, FIG. 8) is recorded as “alteration of the abundance”. For the same molecule, the “cleavage of fibrocystin or stability of proteolytic fragments” value in assay [2] (10 μM ALLN) is listed as “altered”.

With `C=C1[C@@H](C)[C@H]2[C@H](Cc3ccccc3)NC(=O)[C@]23OC(=O)/C=C/[C@H](O)CCC[C@@H](C)C/C=C/[C@H]3[C@@H]1O` [Cytochalasin B], in assay [3] (10 μM Cytochalasin B, FIG. 11), the “cleavage … (luciferase activity)” value was “modulated”.

Turning to `NCCOB(c1ccccc1)c1ccccc1` [2-APB], in assay [3] (50 μg/ml 2-APB, FIG. 11), the “cleavage … (luciferase activity)” value is reported as “modulated”.

Values taken from patent US20080045495A1, “Treatment of Patients with Cystic Disease by Alteration of Fibrocystin Proteolysis” (BOARD OF REGENTS, THE UNIVERSITY OF TEXAS SYSTEM, priority 2006, published 2008).
